Earlier results in patent US20240316044A1, “GRANULATE COMPOSITION COMPRISING NILOTINIB” (HELM AG, priority 2021, published 2024).
Structures can show the parent of a compound that is named as a salt.

Compound: Cc1cn(-c2cc(NC(=O)c3ccc(C)c(Nc4nccc(-c5cccnc5)n4)c3)cc(C(F)(F)F)c2)cn1 [Anhydrous Nilotinib hydrochloride, 4-methyl-N-[3-(4-methyl-1H-imidazol-1-yl)-5-(trifluoromethyl)phenyl]-3-{[4-(pyridin-3-yl)pyrimidin-2-yl]amino} benzamide]
- BCS class (low/moderate aqueous solubility and low permeability): Class IV
